Assay: Water solubility / dissolving of monomer and polymer (other in-vitro-experiments)
Assay type: physicochemical
Excerpt: However, dissolving polymer, once it had been dried, takes considerably longer (some hours) than dissolving dry monomer (some seconds). […] All the 20 hair fibres of each sample without H2O2 pre-treatment lost their radioactivity of the cuticle area by washing, whereas all the other samples kept it.

C=CC(=O)OCCCS(=O)(=O)O [3-SPA, 3-sulfopropylacrylate]
water solubility: water soluble | time for dissolving in water (dry / once dried material): some seconds

Reference: US20120180807A1, “Method for Chemically Modifying the Internal Region of a Hair Shaft” (priority 2011, published 2012)
